By IC50 is commonly meant the concentration that gives 50% inhibition.

Molecules are shown by their SMILES.

We go through 31 molecules from US10927105B1 (Lundbeck La Jolla Research Center, Inc., priority 2017, dated 2021).

The target of the assay is MAGL (Homo sapiens (Human), UniProt Q99685). In words: In vitro competitive activity-based protein profiling (human prefrontal cortex membrane fractions, FP-Rh probe), MAGL band. The conditions noted are these: read-out: MAGL IC50 (μM) (human); human prefrontal cortex membrane fractions.
Sequence of MAGL (Q99685 whole entry): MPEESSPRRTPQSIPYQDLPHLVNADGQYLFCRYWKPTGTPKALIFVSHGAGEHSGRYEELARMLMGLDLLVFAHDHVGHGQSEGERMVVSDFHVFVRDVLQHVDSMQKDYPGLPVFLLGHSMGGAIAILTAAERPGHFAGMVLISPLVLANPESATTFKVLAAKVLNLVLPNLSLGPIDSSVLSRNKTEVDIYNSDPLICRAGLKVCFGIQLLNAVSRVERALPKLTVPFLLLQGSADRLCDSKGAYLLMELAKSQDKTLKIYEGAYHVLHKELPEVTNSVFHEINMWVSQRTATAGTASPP

Description: Biological Evaluation In Vitro Competitive Activity-Based Protein Profiling.
Proteomes (mouse brain membrane fraction for mouse assays; human prefrontal cortex membrane fractions for human assays) (50 mL, 1.0 mg/mL total protein concentration) were preincubated with varying concentrations of inhibitors at 37° C. After 30 min, FP-Rh (1.0 mL, 50 mM in DMSO) was added and the mixture was incubated for another 30 min at 37° C. Reactions were quenched with SDS loading buffer (15 μL-4×) and run on SDS-PAGE.

Regarding `O=C(O)c1ccn(C(=O)N2CCC3(CCN(Cc4cc(Cl)ccc4C(F)(F)F)C3)CC2)n1` [Example 43, 1-(2-(5-chloro-2-(trifluoromethyl)-benzyl)-2,8-diazaspiro[4.5]-decane-8-carbonyl)-1H-pyrazole-3-carboxylic acid], the IC50 is below 0.1 µM. As for `NC(=O)c1ccn(C(=O)N2CCC3(CCN(Cc4ccc(N5CCOCC5)cc4C(F)(F)F)C3)C2)n1` (stereo not shown) [Example 436, 1-(7-(4-morpholino-2-(trifluoromethyl)-benzyl)-2,7-diazaspiro-[4.4]nonane-2-carbonyl)-1H-pyrazole-3-carboxamide], the figure is below 0.1 µM; as for `O=C(O)c1ccn(C(=O)N2C[C@H]3C[C@H](OCc4cccc(-c5ccccc5)c4)C[C@H]3C2)n1` [Example 278, 1-(trans-5-([1,1′-biphenyl]-3-ylmethoxy)-octahydrocyclopenta-[c]pyrrole-2-carbonyl)-1H-pyrazole-3-carboxylic acid], below 0.1 µM. The value for `C[C@@H]1CN(Cc2cc(Cl)cc(C(F)(F)F)c2)CCN1C(=O)n1ccc(C(N)=O)n1` [Example 272, (R)-1-(4-(3-chloro-5-(trifluoromethyl)-benzyl)-2-methylpiperazine-1-carbonyl)-1H-pyrazole-3-carboxamide] was below 0.1 µM; that for `C[C@@H]1CN(Cc2ccc(-c3ccccc3)cc2Cl)CCN1C(=O)n1ccc(C(=O)O)n1` [Example 291, (R)-1-(4-((3-chloro-[1,1′-biphenyl]-4-yl)methyl)-2-methylpiperazine-1-carbonyl)-1H-pyrazole-3-carboxylic acid] was below 0.1 µM; that for `CC(C)c1cccc(O[C@H]2C[C@@H]3CN(C(=O)n4ccc(C(=O)O)n4)C[C@@H]3C2)c1` [Example 220, 1-(trans-5-(3-isopropylphenoxy)-octahydrocyclopenta-[c]pyrrole-2-carbonyl)-1H-pyrazole-3-carboxylic acid] was below 0.1 µM.

As to `Cc1cn(C(=O)N2C[C@H]3C[C@H](OCc4cccc(C(F)(F)F)c4C)C[C@H]3C2)nc1C(=O)O` [Example 306, 4-methyl-1-(trans-5-((2-methyl-3-(trifluoromethyl)-benzyl)oxy)-octahydrocyclopenta-[c]pyrrole-2-carbonyl)-1H-pyrazole-3-carboxylic acid], the IC50 is below 0.1 µM.

As to `O=C(O)c1ccn(C(=O)N2C[C@H]3C[C@H](Oc4cccc(C5CC5)c4)C[C@H]3C2)n1` [Example 219, 1-(trans-5-(3-cyclopropyl-phenoxy)-octahydrocyclopenta-[c]pyrrole-2-carbonyl)-1H-pyrazole-3-carboxylic acid], the IC50 is below 0.1 µM. As for `CNC(=O)c1ccn(C(=O)N2C[C@H]3C[C@@H](N(C)Cc4ccc(C(F)(F)F)cc4)C[C@H]3C2)n1` [Example 439, N-methyl-1-(cis-5-(methyl(4-(trifluoromethyl)-benzyl)amino)-octahydrocyclopenta-[c]pyrrole-2-carbonyl)-1H-pyrazole-3-carboxamide], the figure is below 0.1 µM; as for `O=C(O)c1ccn(C(=O)N2C[C@H]3C[C@H](Oc4ccccc4C4CCOCC4)C[C@H]3C2)n1` [Example 268, 1-(trans-5-(2-(tetrahydro-2H-pyran-4-yl)phenoxy)-octahydrocyclopenta-[c]pyrrole-2-carbonyl)-1H-pyrazole-3-carboxylic acid], below 0.1 µM. Take `COc1cc(-c2ccccc2)ccc1CN1CCN(C(=O)n2ccc(C(=O)O)n2)[C@H](C)C1` [Example 283, (R)-1-(4-((3-methoxy-[1,1′-biphenyl]-4-yl)methyl)-2-methylpiperazine-1-carbonyl)-1H-pyrazole-3-carboxylic acid]: the IC50 is below 0.1 µM. As for `O=C(O)c1ccn(C(=O)N2CCN(Cc3cc(Cl)cc(-c4cncnc4)c3)CC2)n1` [Example 269, 1-(4-(3-chloro-5-(pyrimidin-5-yl)benzyl)-piperazine-1-carbonyl)-1H-pyrazole-3-carboxylic acid], the figure is below 0.1 µM; as for `O=C(O)c1ccn(C(=O)N2CCC(Oc3ccc(C(F)(F)F)cc3N3CCCC3)CC2)n1` [Example 307, 1-(4-(2-(pyrrolidin-1-yl)-4-(trifluoromethyl)-phenoxy)-piperidine-1-carbonyl)-1H-pyrazole-3-carboxylic acid], below 0.1 µM. As for `O=C(O)c1ccn(C(=O)N2C[C@H]3C[C@H](OCc4cccc(C5CCCC5)c4)C[C@H]3C2)n1` [Example 34, 1-(trans-5-((3-Cyclopentylbenzyl)oxy)octahydrocyclopenta[c]pyrrole-2-carbonyl)-1H-pyrazole-3-carboxylic Acid], the IC50 was below 0.1 µM.

With `O=C(O)c1ccn(C(=O)N2CCC3(CCN(Cc4ccc(-c5ccccc5)cc4C(F)(F)F)C3)CC2)n1` [Example 170, 1-(2-((3-(trifluoromethyl)-[1,1′-biphenyl]-4-yl)methyl)-2,8-diazaspiro[4.5]-decane-8-carbonyl)-1H-pyrazole-3-carboxylic acid], the IC50 is below 0.1 µM. Regarding `O=C(O)c1ccn(C(=O)N2CCN(Cc3cc(Cl)cc(Oc4ccc(Cl)cc4)c3)CC2)n1` [Example 19, 1-(4-(3-Chloro-5-(4-chlorophenoxy)benzyl)piperazine-1-carbonyl)-1H-pyrazole-3-carboxylic Acid], the IC50 was below 0.1 µM. On to `C[C@@H]1CN(Cc2cc(F)cc(Oc3ccc(Cl)cc3)c2)CCN1C(=O)n1ccc(C(=O)O)n1` [Example 348, (R)-1-(4-(3-(4-chlorophenoxy)-5-fluorobenzyl)-2-methylpiperazine-1-carbonyl)-1H-pyrazole-3-carboxylic acid], for which the 50% inhibitory concentration (IC50) is below 0.1 µM. The value for `C[C@H]1CN(Cc2cccc(OCC(C)(C)O)c2Cl)CCN1C(=O)n1ccc(C(N)=O)n1` [Example 450, (S)-1-(4-(2-chloro-3-(2-hydroxy-2-methylpropoxy)-benzyl)-2-methylpiperazine-1-carbonyl)-1H-pyrazole-3-carboxamide] was below 0.1 µM. The value for `Cc1cn(C(=O)N2C[C@H]3C[C@H](Oc4cccc(-c5ccccc5)c4)C[C@H]3C2)nc1C(=O)O` [Example 280, 1-(trans-5-([1,1′-biphenyl]-3-yloxy)-octahydrocyclopenta-[c]pyrrole-2-carbonyl)-4-methyl-1H-pyrazole-3-carboxylic acid] was below 0.1 µM; that for `CNC(=O)c1ccn(C(=O)N2CC3CN(Cc4cc(Cl)ccc4Cl)CC3C2)n1` (stereo not shown) [Example 430, 1-(5-(2,5-dichlorobenzyl)-octahydropyrrolo-[3,4-c]pyrrole-2-carbonyl)-N-methyl-1H-pyrazole-3-carboxamide] was below 0.1 µM. As for `Cc1cc(-c2ccccc2)ccc1CN1CCN(C(=O)n2ccc(C(=O)O)n2)C(C)C1` (stereo not shown) [Example 89, 1-(2-methyl-4-((3-methyl-[1,1′-biphenyl]-4-yl)methyl)-piperazine-1-carbonyl)-1H-pyrazole-3-carboxylic acid], the figure is below 0.1 µM. For the molecule `C[C@H]1CN(Cc2cccc(Oc3cc(C(F)(F)F)ccn3)c2)CCN1C(=O)n1ccc(C(=O)O)n1` [Example 373, (S)-1-(2-methyl-4-(3-((4-(trifluoromethyl)-pyridin-2-yl)oxy)benzyl)-piperazine-1-carbonyl)-1H-pyrazole-3-carboxylic acid], the IC50 was below 0.1 µM. As for `O=C(O)c1ccn(C(=O)N2C[C@H]3C[C@H](Oc4ccc(Cl)c(-c5nccs5)c4)C[C@H]3C2)n1` [Example 318, 1-(trans-5-(4-chloro-3-(thiazol-2-yl)phenoxy)-octahydrocyclopenta-[c]pyrrole-2-carbonyl)-1H-pyrazole-3-carboxylic acid], the figure is below 0.1 µM; as for `O=C(O)c1ccn(C(=O)N2C[C@H]3C[C@H](Oc4ccccc4-c4cccnc4)C[C@H]3C2)n1` [Example 244, 1-(trans-5-(2-(pyridin-3-yl)phenoxy)-octahydrocyclopenta-[c]pyrrole-2-cathonyl)-1H-pyrazole-3-carboxylic acid], below 0.1 µM; as for `O=C(O)c1ccn(C(=O)N2CCN(Cc3cccc(Oc4ccccc4Cl)c3)CC2)n1` [Example 85, 1-(4-(3-(2-chlorophenoxy)-benzyl)piperazine-1-carbonyl)-1H-pyrazole-3-carboxylic acid], below 0.1 µM. The value for `NC(=O)c1ccn(C(=O)N2CCC3(CCN(Cc4cc(Cl)ccc4Cl)C3)C2)n1` (stereo not shown) [Example 426, 1-(7-(2,5-dichlorobenzyl)-2,7-diazaspiro[4.4-]-nonane-2-carbonyl)-1H-pyrazole-3-carboxamide] was below 0.1 µM; that for `CN(Cc1cc(Cl)ccc1C(F)(F)F)C1CCN(C(=O)n2ccc(C(=O)O)n2)CC1` [Example 81, 1-(4-((5-chloro-2-(trifluoromethyl)-benzyl)-(methyl)amino)-piperidine-1-carbonyl)-1H-pyrazole-3-carboxylic acid] was below 0.1 µM.

Consider `CNC(=O)c1ccn(C(=O)N2CC3CN(Cc4cc(Cl)cc(C(F)(F)F)c4)CC3C2)n1` (stereo not shown) [Example 437, 1-(5-(3-chloro-5-(trifluoromethyl)-benzyl)-octahydropyrrolo-[3,4-c]pyrrole-2-carbonyl)-N-methyl-1H-pyrazole-3-carboxamide], for which the IC50 is below 0.1 µM.

Consider `O=C(O)c1ccn(C(=O)N2CCN(Cc3ccc(Cl)c(-c4nccs4)c3)CC2)n1` [Example 274, 1-(4-(4-chloro-3-(thiazol-2-yl)benzyl)-piperazine-1-carbonyl)-1H-pyrazole-3-carboxylic acid], for which the IC50 is below 0.1 µM.

Take `O=C(O)c1ccn(C(=O)N2CCN(Cc3cccc(Oc4ccc(F)cn4)c3)CC2)n1` [Example 266, 1-(4-(3-((5-fluoropyridin-2-yl)oxy)benzyl)-piperazine-1-carbonyl)-1H-pyrazole-3-carboxylic acid]: the half-maximal inhibitory concentration (IC50) was below 0.1 µM. The value for `O=C(O)c1ccn(C(=O)N2CCN(Cc3ccc(N4CCCC4)cc3C(F)(F)F)CC2)n1` [Example 167, 1-(4-(4-(pyrrolidin-1-yl)-2-(trifluoromethyl)-benzyl)piperazine-1-carbonyl)-1H-pyrazole-3-carboxylic acid] was below 0.1 µM.
